Measured values taken from US8835476B2, “Synthesis of novel antimicrobials” (priority 2005, dated 2014).
Converted amounts (≈) assume the structure as drawn. Where two headings read alike, the source gives them in different places.

What was measured:
Assay type in all cases: cell-based
P. rettgeri CAP = test: Broth microdilution MIC, reference strains; settings: Providencia rettgeri; P. rettgeri (CAP in Table 1); read-out: MIC (growth inhibition, microdilution method)
From the text: (§1) All clinical isolates tested were from The North American Urinary Tract Infection Collaborative Alliance (NAUTICA) which is a UTI surveillance study involving 40 medical centres (30 from the US and 10 from Canada). Each centre submitted up to 50 consecutive outpatient midstream urine isolates. All isolates were deemed significant urinary tract pathogens by individual laboratory criteria and identified to the species level by each laboratory's existing protocol. Isolates were transported to the coordinating laboratory (Health Sciences Centre, Winnipeg, Canada) on charcoal swabs. Only one isolate per patient was accepted. Upon receipt, isolates were cultured by the coordinating laboratory, stocked in skim milk, and stored at −80° C. awaiting reference antibiotic susceptibility testing. Elementary demographic information was also compiled for each isolate. Isolates were selected randomly from the above pool to represent 18 different species of Enterobacteriaceae and non-Enterobacteriaceae. An average of 5 strains of each species were tested for a total of 93 organisms. In addition, 23 reference (ATCC) [both gram negative and gram positive] strains were tested.
(§2) Susceptibilities to the compounds were determined using the National Committee for Clinical Laboratory Standards (NCCLS) M7-A6 broth microdilution method. […] DMSO controls were incorporated into the panel to mimic the quantity of DMSO used in dissolving some of the compounds at the higher concentrations. Each final panel well volume was 100 μl with a bacterial inoculum of 5×10^5 colony forming units (CFU)/ml. Panels were read following 16 to 20 hours of incubation at 35° C. in ambient air. The minimum inhibitory concentration (MIC) was defined as the lowest concentration of antimicrobial inhibiting visible growth. Quality control (QC) was performed using four ATCC QC organisms that were run with every batch set up to insure reproducibility.

[1] = tested on: A. baumanii clinical isolates; test: Broth microdilution MIC, clinical isolate strains (NAUTICA); settings: clinical isolates, one table line per isolate; unit assumed
From the text: as §1, §2

[2] = tested on: S. liquifaciens clinical isolates; test: as above; settings: clinical isolates, one table line per isolate; unit assumed
From the text: as §1, §2

[3] = tested on: S. maltophilia clinical isolates; test: as above; settings: clinical isolates, one table line per isolate; unit assumed
From the text: as §1, §2

[4] = tested on: M. morganii clinical isolates; test: as above; settings: clinical isolates, one table line per isolate; unit assumed
From the text: as §1, §2

[5] = tested on: S. marcescens clinical isolates; test: as above; settings: clinical isolates, one table line per isolate; unit assumed
From the text: as §1, §2

[6] = tested on: B. cepacia clinical isolates; test: as above; settings: clinical isolates, one table line per isolate; unit assumed
From the text: as §1, §2

[7] = tested on: E. aerogenes clinical isolates; test: as above; settings: clinical isolates, one table line per isolate; unit assumed
From the text: as §1, §2

[8] = tested on: C. koseril clinical isolates; test: as above; settings: clinical isolates, one table line per isolate; unit assumed
From the text: as §1, §2

B. cepacia ATCC 25416 = test: Broth microdilution MIC, ATCC strains; settings: Burkholderia cepacia, ATCC25416; B. cepacia ATCC 25416; read-out: MIC (growth inhibition, microdilution method)
From the text: as §1, §2

[9] = tested on: Ps. aeruginosa ATCC 27853; test: Broth microdilution MIC, ATCC strains; settings: Pseudomonas aeruginosa, ATCC27853; Ps. aeruginosa ATCC 27853; read-out: MIC (growth inhibition, microdilution method)
From the text: as §1, §2

S. warneri ATCC 27836 = test: Broth microdilution MIC, ATCC strains; settings: Staphylococcus warneri, ATCC27836; S. warneri ATCC 27836; read-out: MIC (growth inhibition, microdilution method)
From the text: as §1, §2

MRSA ATCC 33591 = test: Broth microdilution MIC, ATCC strains; settings: Staphylococcus aureus; MRSA ATCC 33591; read-out: MIC (growth inhibition, microdilution method)
From the text: as §1, §2

S. marcescens ATCC 8100 = test: Broth microdilution MIC, ATCC strains; settings: Serratia marcescens, ATCC8100; S. marcescens ATCC 8100; read-out: MIC (growth inhibition, microdilution method)
From the text: as §1, §2

E. cloacae ATCC 23355 = test: Broth microdilution MIC, ATCC strains; settings: Enterobacter cloacae, ATCC23355; E. cloacae ATCC 23355; read-out: MIC (growth inhibition, microdilution method)
From the text: as §1, §2

[10] = tested on: S. liquefaciens ATCC 27592; test: Broth microdilution MIC, ATCC strains; settings: S. liquefaciens ATCC 27592; read-out: MIC (growth inhibition, microdilution method)
From the text: as §1, §2

[11] = tested on: S. epidermidis ATCC 14990; test: Broth microdilution MIC, ATCC strains; settings: Staphylococcus epidermidis, ATCC14990; S. epidermidis ATCC 14990; read-out: MIC (growth inhibition, microdilution method)
From the text: as §1, §2

K. pneumoniae ATCC 13883 = test: Broth microdilution MIC, ATCC strains; settings: Klebsiella pneumoniae, ATCC13883; K. pneumoniae ATCC 13883; read-out: MIC (growth inhibition, microdilution method)
From the text: as §1, §2

K. oxytoca ATCC 49131 = test: Broth microdilution MIC, ATCC strains; settings: Klebsiella oxytoca, ATCC49131; K. oxytoca ATCC 49131; read-out: MIC (growth inhibition, microdilution method)
From the text: as §1, §2

[12] = tested on: S. maltophilia ATCC 13637; test: Broth microdilution MIC, ATCC strains; settings: Stenotrophomonas maltophilia, ATCC13637; S. maltophilia ATCC 13637; read-out: MIC (growth inhibition, microdilution method)
From the text: as §1, §2

S. simulans ATCC 27848 = test: Broth microdilution MIC, ATCC strains; settings: Staphylococcus simulans, ATCC27848, read-out: MIC (growth inhibition, microdilution method)
From the text: as §1, §2

Pr. stuartii ATCC 33672 = test: Broth microdilution MIC, ATCC strains; settings: Providencia stuartii, ATCC33672; Pr. stuartii ATCC 33672; read-out: MIC (growth inhibition, microdilution method)
From the text: as §1, §2

P. vulgaris ATCC 49132 = test: Broth microdilution MIC, ATCC strains; settings: Proteus vulgaris, ATCC49132; P. vulgaris ATCC 49132; read-out: MIC (growth inhibition, microdilution method)
From the text: as §1, §2

P. mirabilis ATCC 29245 = test: Broth microdilution MIC, ATCC strains; settings: Proteus mirabilis, ATCC29245; P. mirabilis ATCC 29245; read-out: MIC (growth inhibition, microdilution method)
From the text: as §1, §2

A. anitratus ATCC 19606 = test: Broth microdilution MIC, ATCC strains; settings: Acinetobacter calcoaceticus, ATCC19606; A. anitratus ATCC 19606; read-out: MIC (growth inhibition, microdilution method)
From the text: as §1, §2

E. faecalis ATCC 29212 = test: Broth microdilution MIC, ATCC strains; settings: Enterococcus faecalis, read-out: MIC (growth inhibition, microdilution method)
From the text: as §1, §2

[13] = tested on: S. saprophyticus ATCC 15305; test: Broth microdilution MIC, ATCC strains; settings: Staphylococcus saprophyticus, ATCC15305; S. saprophyticus ATCC 15305; read-out: MIC (growth inhibition, microdilution method)
From the text: as §1, §2

E. coli ATCC 25922 = test: Broth microdilution MIC, ATCC strains; settings: Escherichia coli, ATCC25922, E. coli ATCC 25922; read-out: MIC (growth inhibition, microdilution method)
From the text: as §1, §2

E. aerogenes ATCC 13048 = test: Broth microdilution MIC, ATCC strains; settings: Klebsiella aerogenes, ATCC13048; E. aerogenes ATCC 13048; read-out: MIC (growth inhibition, microdilution method)
From the text: as §1, §2

E. faecium ATCC 35667 = test: Broth microdilution MIC, ATCC strains; settings: Enterococcus faecium, ATCC35667, read-out: MIC (growth inhibition, microdilution method)
From the text: as §1, §2

S. aureus ATCC 29213 = test: Broth microdilution MIC, ATCC strains; settings: Staphylococcus aureus, ATCC29213, S. aureus ATCC 29213; read-out: MIC (growth inhibition, microdilution method)
From the text: as §1, §2

[14] = tested on: E. cloacae clinical isolates; test: Broth microdilution MIC, clinical isolate strains (NAUTICA); settings: clinical isolates, one table line per isolate; unit assumed
From the text: as §1, §2

[15] = ATCC29212, E. faecalis ATCC 29212
[16] = ATCC29212, E. faecalis, ATCC number not given

SMILES	MIC (P. rettgeri CAP)	MIC, A. BAUMANII [1]	MIC, S. MALTOPHILIA [3]	MIC, B. CEPACIA [6]	MIC (B. cepacia ATCC 25416)	MIC [9]	MIC (S. warneri ATCC 27836)	MIC (MRSA ATCC 33591)	MIC (S. marcescens ATCC 8100)	MIC (E. cloacae ATCC 23355)	MIC [10]	MIC [11]	MIC (K. pneumoniae ATCC 13883)	MIC (K. oxytoca ATCC 49131)	MIC [12]	MIC (S. simulans ATCC 27848)	MIC (Pr. stuartii ATCC 33672)	MIC (P. vulgaris ATCC 49132)	MIC (P. mirabilis ATCC 29245)	MIC (A. anitratus ATCC 19606)	also measured
Cn1nnnc1-c1cc(C(=O)O)sc1C(=O)O [DNM-113, 3-(1-Methyl-1H-tetrazol-5-yl)-thiophene-2,5-dicarboxylic acid]	8 µg/mL (≈ 31.5 µM)	8 µg/mL (≈ 31.5 µM)	8 µg/mL (≈ 31.5 µM)	8 µg/mL (≈ 31.5 µM)	8 µg/mL (≈ 31.5 µM)	8 µg/mL (≈ 31.5 µM)	16 µg/mL (≈ 62.9 µM)	64 µg/mL (≈ 252 µM)	8 µg/mL (≈ 31.5 µM)	8 µg/mL (≈ 31.5 µM)	8 µg/mL (≈ 31.5 µM)	8 µg/mL (≈ 31.5 µM)	8 µg/mL (≈ 31.5 µM)	8 µg/mL (≈ 31.5 µM)	8 µg/mL (≈ 31.5 µM)	32 µg/mL (≈ 126 µM)	16 µg/mL (≈ 62.9 µM)	16 µg/mL (≈ 62.9 µM)	16 µg/mL (≈ 62.9 µM)	8 µg/mL (≈ 31.5 µM)	MIC, S. LIQUEFACIENS [2]: 8 µg/mL (≈ 31.5 µM); MIC, M. MORGANII [4]: 8 µg/mL (≈ 31.5 µM); MIC, S. MARCESCENS [5]: 8 µg/mL (≈ 31.5 µM); MIC, E. AEROGENES [7]: 8 µg/mL (≈ 31.5 µM); MIC, C. KOSERI [8]: 8 µg/mL (≈ 31.5 µM); MIC (E. faecalis ATCC 29212; [15]): 8 µg/mL (≈ 31.5 µM); MIC (E. faecalis ATCC 29212; [16]): 8 µg/mL (≈ 31.5 µM); MIC [13]: 8 µg/mL (≈ 31.5 µM); MIC (E. coli ATCC 25922): 8 µg/mL (≈ 31.5 µM); MIC (E. aerogenes ATCC 13048): 8 µg/mL (≈ 31.5 µM); MIC (E. faecium ATCC 35667): 8 µg/mL (≈ 31.5 µM); MIC (S. aureus ATCC 29213): 32 µg/mL (≈ 126 µM)
COC(=O)c1cc(-c2nnnn2C)c(C(=O)OC)s1 [DNM-115, 3-(1-Methyl-1H-tetrazol-5-yl)-thiophene-2,5-dicarboxylic acid dimethyl ester]	16 µg/mL (≈ 56.7 µM)	8 µg/mL (≈ 28.3 µM)	8 µg/mL (≈ 28.3 µM)	8 µg/mL (≈ 28.3 µM)	8 µg/mL (≈ 28.3 µM)	8 µg/mL (≈ 28.3 µM)	> 16 µg/mL	> 16 µg/mL	8 µg/mL (≈ 28.3 µM)	> 16 µg/mL	8 µg/mL (≈ 28.3 µM)	8 µg/mL (≈ 28.3 µM)	8 µg/mL (≈ 28.3 µM)	8 µg/mL (≈ 28.3 µM)	8 µg/mL (≈ 28.3 µM)	> 16 µg/mL	> 16 µg/mL	16 µg/mL (≈ 56.7 µM)	16 µg/mL (≈ 56.7 µM)	8 µg/mL (≈ 28.3 µM)	MIC, E. CLOACAE [14]: > 16 µg/mL; MIC (E. faecalis ATCC 29212; [15]): 8 µg/mL (≈ 28.3 µM); MIC (E. faecalis ATCC 29212; [16]): 8 µg/mL (≈ 28.3 µM); MIC [13]: 8 µg/mL (≈ 28.3 µM); MIC (E. coli ATCC 25922): 8 µg/mL (≈ 28.3 µM); MIC (E. aerogenes ATCC 13048): 8 µg/mL (≈ 28.3 µM); MIC (E. faecium ATCC 35667): 8 µg/mL (≈ 28.3 µM); MIC (S. aureus ATCC 29213): > 16 µg/mL
